Data reported in EPA's ToxValDB 9.5.
Several values for one entry are separate records, joined by “and”; a condition that tells them apart may be missing. Equal entries are not always repeated.

Experiments:
Canidae = conditions: oral, Dog Other
Rattus norvegicus [1] = conditions: for NOEL: duration: 10 days, Sprague-Dawley; for LEL: uterotrophic, Active
Rattus norvegicus [2] = conditions: oral; for NOEL: gavage, M/F
Rattus norvegicus [3] = conditions: chronic, duration: 2 years, oral, diet, M/F
Rattus norvegicus [4] = test system: Rattus norvegicus
Oryctolagus sp. = conditions: chronic; duration: 4 months; inhalation
[5] = chronic, duration: 1 years, diet, M/F, tremors
[6] = chronic, duration: 1 years, diet, M/F, hypertrophy of adrenal cortex (both sexes) hematological effects (males)
[7] = chronic, duration: 26 weeks, diet, M/F, increased organ weight
[8] = subchronic, M, increased sgot and sgpt levels
[9] = Hershberger, oral, gavage, inactive + Negative + Negative + neither + negative
[10] = chronic, duration: 2 years, diet, M/F, liver and kidney effects, reduced body weight, mortality
[11] = chronic, duration: 1 years, diet, M/F, chronic pneumonitis
[12] = chronic, duration: 4 months, inhalation
[13] = chronic, duration: 106 weeks, diet, M/F, liver and kidney degeneration and bone marrow atrophy
[14] = reduced body weight gain, erythrocyte count and hemoglobin level
[15] = subchronic, duration: 13 weeks, oral, diet, Wistar
[16] = subchronic, duration: 13 weeks, oral, diet, ICR

With CC1(C)C(C(=O)OC(C#N)c2cccc(Oc3ccccc3)c2)C1(C)C (centres undefined) [Fenpropathrin] the LOAEL (Canidae; [5]) was 6.25 mg/kg-day and the NOAEL (Canidae; [5]) was 2.5 mg/kg-day.

For COP(=S)(OC)Oc1ccc(SC)c(C)c1 [Fenthion], the LOEL (Rattus norvegicus [1]; Hershberger, duration: 7 days, oral, gavage, Fischer 344, active + Antiandrogenic + anti-androgenic) was 25 mg/kg-day.

C[C@H]1[C@H](c2ccc(Cl)cc2)SC(=O)N1C(=O)NC1CCCCC1 [Hexythiazox] gave an LEL (Canidae; [6]) of 12.5 mg/kg-day and an NOEL (Canidae; [6]) of 2.5 mg/kg-day.

For CC1(C)CN=C(NN=C(C=Cc2ccc(C(F)(F)F)cc2)C=Cc2ccc(C(F)(F)F)cc2)NC1 [Hydramethylnon], the LEL (Canidae; [7]) was 1 mg/kg-day and the NOEL (Canidae; [7]) was 0.33 mg/kg-day.

In the case of C=C(C)C#N [Methacrylonitrile], the LOAEL (Canidae; [8]) is reported as 24 mg/m3, the NOAEL (Canidae; [8]) is reported as 9 mg/m3 and the NOEL (Rattus norvegicus [2]; subchronic, Fischer 344, Deaths + Clinical Observation: Lethargy Lacrimation, tremors Convulsions Ataxia Abnormalbreathing + Body Weight Changes: decrease + …) is reported as < 7.5 mg/kg-day.

Compound CSc1nnc(C(C)(C)C)c(=O)n1N [Metribuzin] has an NOEL (Rattus norvegicus [1]; [9]) of 120 mg/kg-day, an LEL (Canidae; [10]) of 37.5 mg/kg-day and an NOEL (Canidae; [10]) of 2.5 mg/kg-day.

For CCCCC(C#N)(Cn1cncn1)c1ccc(Cl)cc1 (centres undefined) [Myclobutanil], the NOEL (Rattus norvegicus [1]; Hershberger, oral, gavage, inactive + Negative + Negative + anti-androgenic + decrease in AST wt at 200 and serum testosterone 49% / increase in PPS at 400 and serum …) was 50 mg/kg-day, the LEL (Rattus norvegicus [3]; testicular atrophy) was 9.84 mg/kg-day and the NOEL (Rattus norvegicus [3]; testicular atrophy) was 2.49 mg/kg-day.

In the case of C[n+]1ccc(-c2cc[n+](C)cc2)cc1 [Paraquat], the LEL (Canidae; [11]) is reported as 0.93 mg/kg-day and the NOEL (Canidae; [11]) is reported as 0.45 mg/kg-day.

C1CCNCC1 [Piperidine] was tested, and the LC50 (Rattus norvegicus [4]; acute, inhalation) was > 6970 mg/m3, the LOAEL (Rattus norvegicus [4]; [12]) was 0.01 mg/L and the NOAEL (Rattus norvegicus [4]; [12]) was 0.002 mg/L. The “NOAEL (% diet)” value (Rattus norvegicus [4]; chronic, duration: 50 weeks, oral, drinking water, Sprague-Dawley) was 0.09, the LOAEL (Oryctolagus sp.) was 0.01 mg/L and the NOAEL (Oryctolagus sp.) was 0.002 mg/L. The LD50 (Mus musculus; acute, oral, DD) was 536 mg/kg and 633 mg/kg.

For CSc1nc(NC(C)C)nc(NC(C)C)n1 [Prometryn], the LEL (Canidae; [13]) was 37.5 mg/kg-day and the NOEL (Canidae; [13]) was 3.75 mg/kg-day.

CCCOC(=O)c1ccc(O)cc1 [Propylparaben] was tested, and the LEL (Rattus norvegicus [1]; duration: 3 days, injection, subcutaneous) was 65 mg/kg-day.

Compound CC(C)(C)C(=O)C(Oc1ccc(Cl)cc1)n1cncn1 (centres undefined) [Triadimefon] has an NOEL (Rattus norvegicus [1]; Hershberger, oral, gavage, inactive + Negative + Negative + both + decreased AGD, delayed PPS, decreased AST wt / inhibits CYP17 / increases liver wt 37% and …) of 25 mg/kg-day, an LEL (Rattus norvegicus [3]; [14]) of 25 mg/kg-day and an NOEL (Rattus norvegicus [3]; [14]) of 2.5 mg/kg-day.

Compound CCC[CH2][Sn]([Cl])([CH2]CCC)[CH2]CCC [Tributyltin chloride] has an LEL (Rattus norvegicus [1]; duration: 0 days, oral, diet) of 125 ppm and an NOAEL (Rattus norvegicus [2]; short-term, duration: 28 days, diet, M, Wistar, Body Weight Changes: Weight gain decrease + Food Consumption: decrease + Absolute Organ Weight: Thymus decrease + Relative Organ Weight: …) of 5 ppm.

With NC(CO)(CO)CO [Tromethamine] the LD50 (Rattus norvegicus [4]; acute, dermal) was > 1000 mg/kg, the LD50 (Rattus norvegicus [4]; acute, injection, intravenous) was 6000 mg/kg and the LD50 (Rattus norvegicus [4]; acute, oral, gavage, Wistar) was > 3000 mg/kg. It also gave an NOAEL (Rattus norvegicus [4]; reproduction developmental, duration: 29 days, oral, gavage, Crl:CD(SD), generation: F0) of 1000 mg/kg-day, an NOAEL (Rattus norvegicus [4]; reproduction developmental, duration: 29 days, oral, gavage, Crl:CD(SD), generation: F1) of 1000 mg/kg-day and an NOAEL (Rattus norvegicus [4]; reproduction developmental, duration: 29 days, oral, gavage, generation: F0) of 1000 mg/kg-day. For the same compound, the NOAEL (Rattus norvegicus [4]; reproduction developmental, duration: 29 days, oral, gavage, generation: F1) was 1000 mg/kg-day, the NOAEL (Rattus norvegicus [4]; short-term, duration: 20 days, injection, intravenous, Sprague-Dawley) was 500 mg/kg-day and the LD50 (Mus musculus; acute, dermal) was > 1000 mg/kg. For the same compound, the LD50 (Mus musculus; acute, injection, Intraperitoneal) was 3350 mg/kg, the LD50 (Mus musculus; acute, injection, intravenous) was 6100 mg/kg and the LD50 (Mus musculus; acute, oral, gavage, Swiss) was > 3000 mg/kg.

C=CF [Vinyl fluoride] was tested, and the LOAEL (Rattus norvegicus [4]; subchronic, duration: 90 days, inhalation, Crl:CDABR) was 377 mg/m3, the LC50 (Mus musculus; acute, inhalation) was 1.3e+06 mg/m3 and the LOAEL (Mus musculus; subchronic, duration: 90 days, inhalation, Crl:CD-1 (ICR) BR) was 377 mg/m3.

For COP(=O)(OC)O/C(=C\Cl)c1cc(Cl)c(Cl)cc1Cl [Z-Tetrachlorvinphos], the NOEL (Rattus norvegicus [1]; [9]) was 350 mg/kg-day, the NOEL (Rattus norvegicus [2]; short-term, duration: 28 days, Wistar, Deaths + Clinical Observation: Soiled perineal region + Body Weight Changes: decrease + Blood Chemistry: AST decrease, gamma-GTP increase, …) was < 10 mg/kg-day and the NOEL (Rattus norvegicus [2]; short-term, duration: 28 days, Wistar, Deaths + Clinical Observation: Soiled perineal region + Body Weight Changes: decrease + Hematology: RBC decrease, HGB decrease, HCT decrease…) was < 10 mg/kg-day.

[Cl][Zn][Cl] [Zinc chloride] gave an LOAEL (Rattus norvegicus [4]; short-term, duration: 4 weeks, oral, drinking water, Wistar) of 12 mg/kg-day, an LOAEL (Rattus norvegicus [4]; [15]) of 2880 mg/kg-day and an NOAEL (Rattus norvegicus [4]; [15]) of 288 mg/kg-day. For the same compound, the LD50 (Mus musculus; acute, oral, gavage, Swiss) was 1260 mg/kg and 605 mg/kg, the NOAEL (Mus musculus; developmental, duration: 18 days, injection, Intraperitoneal, CF1) was 12.5 mg/kg-day and the NOAEL (Mus musculus; reproduction developmental, duration: 18 days, injection, Intraperitoneal, F, CF1) was 12.5 mg/kg-day. The LOAEL (Mus musculus; [16]) was 5910 mg/kg-day and the NOAEL (Mus musculus; [16]) was 591 mg/kg-day.
